Legend:
fibronectin [1] = experiment: Pull-down assay of His-tagged synthesized peptides with purified fibronectin; assay type: binding; conditions: His-tagged peptide 20 μg, purified fibronectin 0.5 μg, Ni-NTA agarose beads, Coomassie staining
Description: FIG. 13B illustrates pull-down assay using purified fibronectin and purified His-tagged synthesized peptides to determine the specific sequence with fibronectin-binding activity.
The coding sequences of wild-type or mutant forms of dysadherin were synthesized and cloned into pET151/DTOPO vector by Thermo Fisher Scientific. OE of His-tagged dysadherin was achieved using E. coli grown in Luria-Bertani (LB) broth medium, supplemented with ampicillin. Isopropyl β-D-1-thiogalactopyranoside (IPTG, 0.5 mM) was added into the LB broth medium to induce the expression of the protein of interest, and the mixture was incubated for 5 h at 37° C. The cells were then lysed using RIPA buffer and purified using a Ni-NTA column (R90101, Thermo Fisher Scientific). The concentrated purified protein was measured using the BCA Protein Assay kit (Thermo Fisher Scientific). […] Presence of His-tagged dysadherin and fibronectin proteins were determined by immunoblot analysis using anti-His rabbit monoclonal antibody (#12698, Cell Signaling Technology) and anti-fibronectin rabbit polyclonal antibody (ab2413, Abcam, Cambridge, MA, USA). […] The purity of each peptide was determined to be over 95% by LC-MS. […] The presence of His-tagged dysadherin, dysadherin peptides, and fibronectin was determined by staining with Coomassie Brilliant Blue.

SW480 cells = experiment: Cell viability by MTT assay, SW480 cells; assay type: cell-based, human; conditions: MTT assay at 48 hours after peptide treatment
Protocol: (§1) FIGS. 13C-13D illustrate cell viability were measured by an MTT assay at 48 hours after the treatment of annotated peptide in SW480 cells with and without KO of dysadherin.
(§2) Cells were seeded in 6-well or 96-well plates and incubated for various time points. The numbers of viable cells were measured with an automated cell counter (Countess II, ThermoFisher Scientific, Waltham, MA, USA) or measured by staining with thiazolyl blue tetrazolium bromide (MTT, Sigma-Aldrich, St. Louis, MO, USA), and the absorbance was measured using a microplate spectrophotometer (Bio-Tek Instruments Inc., Winooski, VT, USA).

[2] = system: dysadherin KO SW480 cells; experiment: Cell viability by MTT assay, dysadherin KO SW480 cells; assay type: cell-based, human; conditions: MTT assay at 48 hours after peptide treatment
Protocol: as §1
A dysadherin-KO (FXYD5^−/−) SW480 cell line was generated by Transomic Technologies (Huntsville, AL, USA). Specific gRNA targeting different regions of the human FXYD5 gene was designed and cloned into the pCLIPAll (EFS-Puro) expression vector. SW480 cells were infected with lentiviral particles and selected with puromycin for 1 week. Dilution cloning was performed to obtain different monoclonal cell populations. […] For establishment of the dysadherin-OE cell line, HCT116 cells were transfected with dysadherin expression vector (pcDNA-L3HSV) and selected with G418 for 1 week. Dilution cloning was performed and OE of the dysadherin gene was confirmed by RT-qPCR and immunoblot analysis. […]
as §2

HCT116 cells [3] = experiment: Wound healing assay (migration), HCT116 cells overexpressing dysadherin; assay type: cell-based, human; conditions: VS-4718 1 μM, 48-h incubation in serum-free media
Protocol: (§3) FIGS. 16A-16G illustrate functional involvement of fibronectin/integrin/FAK axis in dysadherin-mediated protumor activity. (FIG. 16A) The number of viable cells was measured with an automated cell counter (Countess II, ThermoFisher Scientific, Waltham, MA, USA) at the indicated time points (n=3/group) in HCT116 cells overexpressing wildtype (full length) or mutant dysadherin. EV-transfected cells were used as controls. […] (FIG. 16B) To determine the effect of fibronectin and FAK signaling on cancer cell growth, dysadherin-OE or control cells were transfected with control siRNA (siCTRL) or siRNAs targeting fibronectin (siFN1). At 24 h after transfection, cells were detached, reseeded, and incubated for 12 h for cell attachment. […] The relative cell numbers were determined by MTT assays (n=3/group). […] The black dotted line indicates initial wound area, and the blue line indicates the cell boundaries determined after a 48-h incubation in serum-free media. […] After a 24-h incubation, the cells that invaded through to the bottom of the membrane were fixed, stained with crystal violet, and counted under a phase-contrast microscope (n=3/group). […]
Cells were seeded in culture inserts (Ibidi, GmbH, Martinsried, Germany). […] The wound area at time zero or the endpoint was measured using Image-Pro Premier 9.2. The area of wound closure was calculated as a percentage of the initial wound area. […]

[4] = system: dysadherin-OE HCT116 cells; experiment: Cell growth by MTT assay, dysadherin-OE HCT116 cells; assay type: cell-based, human; conditions: VS-4718 3 μM, 36 h
Protocol: (§4) FIGS. 16A-16G illustrate functional involvement of fibronectin/integrin/FAK axis in dysadherin-mediated protumor activity. (FIG. 16A) The number of viable cells was measured with an automated cell counter (Countess II, ThermoFisher Scientific, Waltham, MA, USA) at the indicated time points (n=3/group) in HCT116 cells overexpressing wildtype (full length) or mutant dysadherin. EV-transfected cells were used as controls. […] (FIG. 16B) To determine the effect of fibronectin and FAK signaling on cancer cell growth, dysadherin-OE or control cells were transfected with control siRNA (siCTRL) or siRNAs targeting fibronectin (siFN1). At 24 h after transfection, cells were detached, reseeded, and incubated for 12 h for cell attachment. Then cells were incubated for 36 h with or without FAK inhibitor treatment (VS-4718, 3 μM). The relative cell numbers were determined by MTT assays (n=3/group). […] Cells were seeded on fibronectin-coated culture plates with or without VS-4718, at 1 or 3 μM. […] The black dotted line indicates initial wound area, and the blue line indicates the cell boundaries determined after a 48-h incubation in serum-free media. […] After a 24-h incubation, the cells that invaded through to the bottom of the membrane were fixed, stained with crystal violet, and counted under a phase-contrast microscope (n=3/group). […]

wild-type HCT116 cells = experiment: Cell growth by MTT assay, wild-type HCT116 cells; assay type: cell-based, human; conditions: VS-4718 3 μM, 36 h
Protocol: as §4

FAK = target: T1, FAK (Homo sapiens, UniProt Q05397); experiment: Immunoblot of FAK activation status (p-FAK); assay type: cell-based
T1 construct: endogenous in cells; host or cells: Human CRC cells
Protocol: as §3
Tissues or cells were homogenized in RIPA buffer for 20 min on ice. Protein concentrations were determined based on bicinchoninic acid (BCA) assay using the BCA Protein Assay kit (Thermo Fisher Scientific, Waltham, MA, USA). […]

HCT116 cells [5] = experiment: Boyden chamber assay (invasion), HCT116 cells overexpressing dysadherin; assay type: cell-based, human; conditions: FAK inhibitor 3 μmol/L, 24-h incubation, serum-free media
Protocol: as §3, with “(siFN1).” for “(siFN1). At 24 h after transfection, cells were detached, reseeded, and incubated for 12 h for cell attachment.”
The Transwell system (8 μm pore size, Corning) was employed for migration and invasion assays. […] After incubation for 24 h at 37° C., the cells that migrated or invaded the Matrigel through to the bottom of the insert membrane were fixed, stained with crystal violet, and counted under a phase-contrast microscope (Carl Zeiss, biological triplicates).

HCT116 cells [6] = experiment: Clonogenic assay (survival potential), HCT116 cells overexpressing dysadherin; assay type: cell-based, human; conditions: VS-4718 3 μmol/L for 24 h, then clonogenic assay
Protocol: as §3
A clonogenic assay was performed as cells were seeded in 12-well plates (200 cells/well) and cultured for 14 days. The numbers of colonies greater than 50 μm in size were counted after staining with crystal violet (n=3/group).

fibronectin [7] = target: T2, fibronectin (Homo sapiens, UniProt P02751); experiment: Pull-down assay of purified His-tagged dysadherin proteins with purified fibronectin protein; assay type: binding; conditions: purified His-tagged dysadherin proteins 1 μg, purified fibronectin 0.5 μg, anti-His antibody, immunoblot
T2 construct: purchased Sigma Aldrich
Description: FIGS. […] illustrate the extracellular domain of dysadherin directly binds fibronectin. (FIG. 12A) Co-IP with anti-dysadherin antibody (M53) and subsequent immunoblot analyses validate the binding of dysadherin to endogenous fibronectin in CRC cells. (FIG. 12B) Co-IP with M53 and subsequent immunoblot analyses confirm that the quantity of dysadherin-bound fibronectin is decreased by dysadherin KO but increased by dysadherin OE. (FIG. 12C) Whole-protein lysates and membrane fractions were extracted from cells at the indicated time points. Culture media were collected and applied to dot blot assays to compare the quantities of secreted fibronectin. […]
The coding sequences of wild-type or mutant forms of dysadherin were synthesized and cloned into pET151/DTOPO vector by Thermo Fisher Scientific. […] The concentrated purified protein was measured using the BCA Protein Assay kit (Thermo Fisher Scientific). […] Presence of His-tagged dysadherin and fibronectin proteins were determined by immunoblot analysis using anti-His rabbit monoclonal antibody (#12698, Cell Signaling Technology) and anti-fibronectin rabbit polyclonal antibody (ab2413, Abcam, Cambridge, MA, USA). […] The purity of each peptide was determined to be over 95% by LC-MS. […] The presence of His-tagged dysadherin, dysadherin peptides, and fibronectin was determined by staining with Coomassie Brilliant Blue.

T1 sequence (Q05397 whole entry): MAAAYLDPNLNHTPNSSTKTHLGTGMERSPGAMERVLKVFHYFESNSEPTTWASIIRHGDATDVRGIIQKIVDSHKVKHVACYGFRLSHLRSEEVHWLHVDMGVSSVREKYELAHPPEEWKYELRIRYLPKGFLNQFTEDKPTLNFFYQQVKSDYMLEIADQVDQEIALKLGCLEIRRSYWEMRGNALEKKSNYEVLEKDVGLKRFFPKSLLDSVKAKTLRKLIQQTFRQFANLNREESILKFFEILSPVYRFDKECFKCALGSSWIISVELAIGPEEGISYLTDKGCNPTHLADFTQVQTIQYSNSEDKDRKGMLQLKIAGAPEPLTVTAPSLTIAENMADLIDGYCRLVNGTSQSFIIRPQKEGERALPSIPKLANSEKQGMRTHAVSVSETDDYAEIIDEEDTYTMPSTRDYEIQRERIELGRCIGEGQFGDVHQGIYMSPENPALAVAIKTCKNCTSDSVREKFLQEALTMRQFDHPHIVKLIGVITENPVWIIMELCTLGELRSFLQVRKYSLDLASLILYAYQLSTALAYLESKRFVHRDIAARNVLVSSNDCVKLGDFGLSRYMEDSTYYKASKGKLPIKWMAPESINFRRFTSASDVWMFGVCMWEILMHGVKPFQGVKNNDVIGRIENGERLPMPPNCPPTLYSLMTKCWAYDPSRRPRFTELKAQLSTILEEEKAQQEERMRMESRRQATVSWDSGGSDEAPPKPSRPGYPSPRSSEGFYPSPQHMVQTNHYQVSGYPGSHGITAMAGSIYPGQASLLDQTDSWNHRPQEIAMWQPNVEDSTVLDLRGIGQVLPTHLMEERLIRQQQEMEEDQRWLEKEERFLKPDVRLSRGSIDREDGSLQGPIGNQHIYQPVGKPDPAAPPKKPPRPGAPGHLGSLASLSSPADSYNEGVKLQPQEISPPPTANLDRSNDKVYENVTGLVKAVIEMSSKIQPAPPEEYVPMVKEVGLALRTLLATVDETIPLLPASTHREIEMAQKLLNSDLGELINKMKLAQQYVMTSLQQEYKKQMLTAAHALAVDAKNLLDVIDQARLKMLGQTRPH
T2 sequence (P02751 32-2477, species assumed): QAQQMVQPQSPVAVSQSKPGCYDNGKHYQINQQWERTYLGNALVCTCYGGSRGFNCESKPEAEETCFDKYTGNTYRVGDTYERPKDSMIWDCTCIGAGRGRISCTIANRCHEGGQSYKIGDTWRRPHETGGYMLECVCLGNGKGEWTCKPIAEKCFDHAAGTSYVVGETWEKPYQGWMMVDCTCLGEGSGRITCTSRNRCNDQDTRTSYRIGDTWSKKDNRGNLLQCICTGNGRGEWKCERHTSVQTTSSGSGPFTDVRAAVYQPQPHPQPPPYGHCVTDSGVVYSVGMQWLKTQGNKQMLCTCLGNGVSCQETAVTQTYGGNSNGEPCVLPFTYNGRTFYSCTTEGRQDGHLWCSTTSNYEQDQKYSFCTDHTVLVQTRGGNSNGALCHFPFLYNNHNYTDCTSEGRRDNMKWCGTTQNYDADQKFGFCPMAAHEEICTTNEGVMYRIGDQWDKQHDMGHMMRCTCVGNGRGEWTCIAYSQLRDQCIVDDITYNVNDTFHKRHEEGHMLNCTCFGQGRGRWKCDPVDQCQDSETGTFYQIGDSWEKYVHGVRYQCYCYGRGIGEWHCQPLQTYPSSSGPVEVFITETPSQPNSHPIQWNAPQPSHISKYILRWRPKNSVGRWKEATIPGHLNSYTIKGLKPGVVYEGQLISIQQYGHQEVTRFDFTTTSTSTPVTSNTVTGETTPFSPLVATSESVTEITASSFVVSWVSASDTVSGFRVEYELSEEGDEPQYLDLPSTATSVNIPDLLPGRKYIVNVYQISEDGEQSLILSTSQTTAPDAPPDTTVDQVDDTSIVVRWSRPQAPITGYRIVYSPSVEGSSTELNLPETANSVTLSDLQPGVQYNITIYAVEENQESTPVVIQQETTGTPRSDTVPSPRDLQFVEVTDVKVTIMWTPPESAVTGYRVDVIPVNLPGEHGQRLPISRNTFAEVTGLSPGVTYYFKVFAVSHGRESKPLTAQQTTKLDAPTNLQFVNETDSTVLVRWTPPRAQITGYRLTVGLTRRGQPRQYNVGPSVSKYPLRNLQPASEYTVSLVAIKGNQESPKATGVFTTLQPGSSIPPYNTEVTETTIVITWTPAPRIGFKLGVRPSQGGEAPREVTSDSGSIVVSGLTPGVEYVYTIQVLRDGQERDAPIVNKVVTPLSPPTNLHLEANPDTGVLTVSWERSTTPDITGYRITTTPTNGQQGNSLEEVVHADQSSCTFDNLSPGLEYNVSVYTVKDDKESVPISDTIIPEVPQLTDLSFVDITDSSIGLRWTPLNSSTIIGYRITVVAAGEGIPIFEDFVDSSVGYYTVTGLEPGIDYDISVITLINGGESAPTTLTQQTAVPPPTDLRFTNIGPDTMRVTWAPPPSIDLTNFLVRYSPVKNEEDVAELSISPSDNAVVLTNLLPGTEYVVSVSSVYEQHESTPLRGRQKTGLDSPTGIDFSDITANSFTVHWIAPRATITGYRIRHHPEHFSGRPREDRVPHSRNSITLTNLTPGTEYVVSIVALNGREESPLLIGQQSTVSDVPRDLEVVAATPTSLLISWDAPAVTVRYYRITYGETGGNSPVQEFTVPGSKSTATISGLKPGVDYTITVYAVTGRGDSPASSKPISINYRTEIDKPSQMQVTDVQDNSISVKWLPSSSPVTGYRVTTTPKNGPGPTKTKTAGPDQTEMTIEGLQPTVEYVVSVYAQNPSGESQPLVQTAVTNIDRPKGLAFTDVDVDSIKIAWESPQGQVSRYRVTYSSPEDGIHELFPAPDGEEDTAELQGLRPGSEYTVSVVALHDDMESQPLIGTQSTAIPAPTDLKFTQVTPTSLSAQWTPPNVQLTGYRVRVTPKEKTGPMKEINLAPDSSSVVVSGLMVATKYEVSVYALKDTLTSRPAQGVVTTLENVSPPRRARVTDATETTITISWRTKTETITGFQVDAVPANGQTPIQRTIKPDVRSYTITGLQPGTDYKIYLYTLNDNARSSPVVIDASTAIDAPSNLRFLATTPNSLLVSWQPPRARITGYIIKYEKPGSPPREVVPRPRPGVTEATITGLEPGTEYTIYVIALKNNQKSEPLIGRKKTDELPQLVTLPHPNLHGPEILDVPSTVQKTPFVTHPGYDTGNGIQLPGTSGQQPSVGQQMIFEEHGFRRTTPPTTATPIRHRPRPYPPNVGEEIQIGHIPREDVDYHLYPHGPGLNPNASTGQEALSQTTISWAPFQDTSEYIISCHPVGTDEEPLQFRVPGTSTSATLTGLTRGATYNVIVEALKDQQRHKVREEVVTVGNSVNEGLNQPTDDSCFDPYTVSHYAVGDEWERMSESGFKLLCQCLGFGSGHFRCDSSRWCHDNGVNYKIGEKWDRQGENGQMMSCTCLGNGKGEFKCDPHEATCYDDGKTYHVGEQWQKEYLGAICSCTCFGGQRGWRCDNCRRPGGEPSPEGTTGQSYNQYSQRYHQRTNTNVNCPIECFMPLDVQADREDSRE

Molecule: PADETPQPQTQTQQLEGTDGP (listed as Homo sapiens) [N #3]
- fibronectin-binding activity (fibronectin [1]): displayed fibronectin-binding activity
- cytotoxicity against SW480 cells (SW480 cells): selective cytotoxicity
- effect against dysadherin KO SW480 cells [2]: limited effect

Molecule: CNC(=O)c1ccccc1Nc1cc(Nc2ccc(N3CCOCC3)cc2OC)ncc1C(F)(F)F [VS-4718]
- dysadherin-induced increase in CRC migration (HCT116 cells [3]): attenuated
- dysadherin-induced CRC growth [4]: diminished dysadherin-induced CRC growth
- growth of wild-type HCT116 cells (wild-type HCT116 cells): attenuated the growth of wild-type HCT116 cells
- fibronectin-induced FAK activation (FAK; cells on fibronectin-coated plates, VS-4718 at 1 or 3 μM, 4 h): inhibitory effects
- basal p-FAK levels (FAK; treatment with VS-4718, FIG. 16C): diminished basal p-FAK levels
- dysadherin-induced increase in CRC invasion (HCT116 cells [5]): attenuated
- dysadherin-induced increase in CRC survival (HCT116 cells [6]): attenuated

Molecule: KAAHPTDDTTTLSERPSPST (listed as Homo sapiens) [N #4]
- fibronectin-binding activity (fibronectin [1]): displayed fibronectin-binding activity
- cytotoxicity against SW480 cells (SW480 cells): selective cytotoxicity
- effect against dysadherin KO SW480 cells [2]: limited effect

B1: dysadherin: purified recombinant His-tagged dysadherin protein, full-length (wild-type), from E. coli (protein)
chain: QTLKDTTSSSSADSTIMDIQVPTRAPDAVYTELQPTSPTPTWPADETPQPQTQTQQLEGTDGPLVTDPETHKSTKAAHPTDDTTTLSERPSPSTDVQTDPQTLKPSGFHEDDPFFYDEHTLRKRGLLVAAVLFITGIIILTSGKCRQLSRLCRNRCR
- binding to fibronectin (fibronectin [7]): direct binding

From patent US12024546B2, “Peptides and anti-cancer compositions including thereof” (GWANGJU INSTITUTE OF SCIENCE AND TECHNOLOGY, priority 2022, dated 2024)
